Structures are written as SMILES. Read-outs that look alike come from different tables or passages of the source.

In test [1] the target is recombinant human EGFR exon 19 deletion/C797S double mutant protein (Homo sapiens (Human), UniProt P00533, C797S/DEL746-750). Nature of the test: Biological Activity Assay C: biochemical assay against EGFR exon 19 deletion/C797S protein (EGFR d19/CS). The essentials: (§1)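 IC50 values were fitted with a 4-parameter model to reaction slopes taken from 90 kinetic reads spaced 120 s apart. The Phosphosens sensor/ATP working solution was 40 uM/4 mM, and compound was dosed as 16-point dilutions at 2.5% final DMSO.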
Chain of recombinant human EGFR exon 19 deletion/C797S double mutant protein (P00533 other isoform, or with tags, fused parts or gaps C797S/del 1-668/del 746-750 limits assumed): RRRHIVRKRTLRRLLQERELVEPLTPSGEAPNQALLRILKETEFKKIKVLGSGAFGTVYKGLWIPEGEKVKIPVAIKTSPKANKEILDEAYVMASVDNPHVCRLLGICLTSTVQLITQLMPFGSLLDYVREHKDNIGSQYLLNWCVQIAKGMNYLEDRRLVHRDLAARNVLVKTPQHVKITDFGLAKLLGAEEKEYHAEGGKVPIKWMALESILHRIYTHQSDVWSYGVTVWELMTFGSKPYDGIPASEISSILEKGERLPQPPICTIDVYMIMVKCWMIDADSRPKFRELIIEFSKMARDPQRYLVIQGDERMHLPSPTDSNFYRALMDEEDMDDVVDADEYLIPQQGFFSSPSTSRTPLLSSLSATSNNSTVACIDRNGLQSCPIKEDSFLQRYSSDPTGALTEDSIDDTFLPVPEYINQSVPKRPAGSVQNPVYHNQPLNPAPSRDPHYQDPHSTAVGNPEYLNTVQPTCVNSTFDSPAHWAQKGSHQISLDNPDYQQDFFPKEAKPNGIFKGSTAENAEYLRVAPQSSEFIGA

The next test concerns BaF3_EGFR d19/CS cells. Put plainly: Biological Activity Assay D: BaF3 cell proliferation assay, EGFR exon 19 deletion/C797S (BaF3 d19/CS). Format: cell-based. Conditions: Ba/F3 EGFR, read-out: BaF3 d19/CS IC50.
The next test concerns Ba/F3_EGFR WT cells. Nature of the test: Biological Activity Assay D: BaF3 cell proliferation assay, EGFR wild-type (BaF3 WT). It is filed as cell-based. Conditions: Ba/F3 EGFR, read-out: BaF3 WT IC50.
Another test relates to BaF3_EGFR LR/CS cells. Nature of the test: Biological Activity Assay D: BaF3 cell proliferation assay, EGFR L858R/C797S mutant (BaF3 LR/CS). It is filed as cell-based. The conditions noted are these: Ba/F3 EGFR, read-out: BaF3 LR/CS IC50.
In test [2] the target is recombinant human EGFR L858R/C797S double mutant protein (Homo sapiens (Human), UniProt P00533, C797S/L858R). Put plainly: Biological Activity Assay B: biochemical assay against EGFR L858R/C797S protein (EGFR LR/CS). The essentials: as §1
Chain of recombinant human EGFR L858R/C797S double mutant protein (P00533 25-1210 C797S/L858R): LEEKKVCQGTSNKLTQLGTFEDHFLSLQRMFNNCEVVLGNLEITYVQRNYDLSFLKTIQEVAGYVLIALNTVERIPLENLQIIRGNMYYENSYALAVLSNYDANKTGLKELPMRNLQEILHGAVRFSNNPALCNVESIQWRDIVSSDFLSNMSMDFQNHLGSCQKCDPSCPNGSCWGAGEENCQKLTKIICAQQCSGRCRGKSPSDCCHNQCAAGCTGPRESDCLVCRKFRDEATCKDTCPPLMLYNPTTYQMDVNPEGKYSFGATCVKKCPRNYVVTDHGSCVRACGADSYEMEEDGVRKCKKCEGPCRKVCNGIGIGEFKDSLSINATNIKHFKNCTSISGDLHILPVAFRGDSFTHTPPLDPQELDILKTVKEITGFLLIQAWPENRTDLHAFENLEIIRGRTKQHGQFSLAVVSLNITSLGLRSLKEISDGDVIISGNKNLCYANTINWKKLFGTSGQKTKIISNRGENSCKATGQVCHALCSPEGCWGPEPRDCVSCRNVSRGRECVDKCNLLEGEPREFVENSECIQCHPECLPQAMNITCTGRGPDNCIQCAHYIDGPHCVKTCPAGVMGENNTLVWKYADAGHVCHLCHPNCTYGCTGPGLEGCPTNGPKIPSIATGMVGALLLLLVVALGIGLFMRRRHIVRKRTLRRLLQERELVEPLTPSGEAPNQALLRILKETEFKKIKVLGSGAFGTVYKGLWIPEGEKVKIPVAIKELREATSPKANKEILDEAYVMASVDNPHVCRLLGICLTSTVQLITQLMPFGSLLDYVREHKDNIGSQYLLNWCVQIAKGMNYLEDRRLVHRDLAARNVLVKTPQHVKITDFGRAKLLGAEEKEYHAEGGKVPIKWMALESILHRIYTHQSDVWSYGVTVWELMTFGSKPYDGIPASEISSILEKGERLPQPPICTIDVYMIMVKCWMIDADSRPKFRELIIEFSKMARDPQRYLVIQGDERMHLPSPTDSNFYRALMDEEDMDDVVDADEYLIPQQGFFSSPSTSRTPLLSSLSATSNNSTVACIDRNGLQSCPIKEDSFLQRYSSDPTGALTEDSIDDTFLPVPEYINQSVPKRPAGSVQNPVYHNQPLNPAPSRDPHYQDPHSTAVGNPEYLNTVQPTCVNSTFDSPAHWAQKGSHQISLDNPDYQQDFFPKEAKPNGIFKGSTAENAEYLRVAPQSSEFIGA
The mark [3] stands for this setting: BaF3_EGFR d19/CS cells, ~72 hours, CellTiter-Glo.
Where [4] appears, read: Ba/F3_EGFR WT cells, ~72 hours, CellTiter-Glo.
[5] abbreviates: BaF3_EGFR LR/CS cells, ~72 hours, CellTiter-Glo.

As for `CC(C)(O)Cn1cc(-c2ncnc3oc(-c4ccccc4)cc23)c(-c2cccc(F)c2)n1` [Example 95, 1-[3-(3-Fluorophenyl)-4-(6-phenylfuro[2,3-d]pyrimidin-4-yl)-1H-pyrazol-1-yl]-2-methylpropan-2-ol], the IC50 amounted to 0.32 nM in test [1]; 95.2 nM in the test on BaF3_EGFR d19/CS cells (setting [3]); 2090 nM with Ba/F3_EGFR WT cells (setting [4]); 116 nM in the test on BaF3_EGFR LR/CS cells (setting [5]); 0.75 nM in test [2].
For `O=S1(=O)CC(Cn2cc(-c3ncnc4oc(-c5ccccc5)cc34)c(-c3ccc(F)cc3)n2)C1` [Example 98, 3-{[3-(4-fluorophenyl)-4-(6-phenylfuro[2,3-d]pyrimidin-4-yl)-1H-pyrazol-1-yl]methyl}-1λ6-thietane-1,1-dione] the same measures were 1.27 nM, 212 nM, 1860 nM, 161 nM and 0.82 nM.
In the same order, the values of `CS(=O)(=O)NCCn1cc(-c2ncnc3oc(-c4ccccc4)cc23)c(-c2ccc(F)cc2)n1` [Example 103, N-{2-[3-(4-Fluorophenyl)-4-(6-phenylfuro[2,3-d]pyrimidin-4-yl)-1H-pyrazol-1-yl]ethyl}methanesulfonamide] are 0.13 nM, 17.5 nM, 229 nM, 8.35 nM and 0.16 nM.
For `O=S1(=O)CC(n2nc(-c3ccc(F)cc3)c(-c3ncnc4oc(-c5ccccc5)cc34)n2)C1` [Example 104, 3-[4-(4-Fluorophenyl)-5-(6-phenylfuro[2,3-d]pyrimidin-4-yl)-2H-1,2,3-triazol-2-yl]-1λ6-thietane-1,1-dione] the same measures were 0.46 nM, 98 nM, 10600 nM, 174 nM and 1.67 nM.
In the case of `O=S1(=O)CCC(Cn2cc(-c3ncnc4oc(-c5ccccc5)cc34)c(-c3ccc(F)cc3)n2)CC1` [Example 105, 4-{[3-(4-fluorophenyl)-4-(6-phenylfuro[2,3-d]pyrimidin-4-yl)-1H-pyrazol-1-yl]methyl}-1λ6-thiane-1,1-dione], the IC50 was determined as 1.69 nM in test [1]; 152 nM in the test on BaF3_EGFR d19/CS cells (setting [3]); 1700 nM in the test with Ba/F3_EGFR WT cells (setting [4]); 136 nM with BaF3_EGFR LR/CS cells (setting [5]); 0.75 nM in test [2].
Turning to `NC(=O)Cn1cc(-c2ncnc3oc(-c4ccccc4)cc23)c(-c2ccc(F)cc2)n1` [Example 106, 2-[3-(4-Fluorophenyl)-4-(6-phenylfuro[2,3-d]pyrimidin-4-yl)-1H-pyrazol-1-yl]acetamide], the IC50 in test [1] came out at 0.38 nM; with BaF3_EGFR d19/CS cells (setting [3]) it was 64.7 nM; in the test on Ba/F3_EGFR WT cells (setting [4]) it was 1020 nM; in the test on BaF3_EGFR LR/CS cells (setting [5]) it was 55.7 nM; in test [2], 0.45 nM.
For `Fc1ccc(-c2nn(C(F)F)cc2-c2ncnc3oc(-c4ccccc4)cc23)cc1` [Example 107, 4-[1-(difluoromethyl)-3-(4-fluorophenyl)-1H-pyrazol-4-yl]-6-phenylfuro[2,3-d]pyrimidine] the same measures were 6.94 nM, 314 nM, 3370 nM, 610 nM and 9.83 nM.
With `CC(=O)N1CC=C(c2cc3c(-c4cn(C5CS(=O)(=O)C5)nc4-c4ccc(F)cc4)ncnc3o2)CC1` [Example 108, 3-{4-[6-(1-Acetyl-1,2,3,6-tetrahydropyridin-4-yl)furo[2,3-d]pyrimidin-4-yl]-3-(4-fluorophenyl)-1H-pyrazol-1-yl}-1λ6-thietane-1,1-dione], the IC50 in test [1] amounted to 0.45 nM; with BaF3_EGFR d19/CS cells (setting [3]) it was 105 nM; in the test on Ba/F3_EGFR WT cells (setting [4]) it was 1520 nM; in the test on BaF3_EGFR LR/CS cells (setting [5]) it was 130 nM; in test [2], 1.59 nM.
For `CC(C)(O)Cn1cc(-c2ncnc3oc(-c4ccccc4)cc23)c(-c2ccccc2F)n1` [Example 109, 1-[3-(2-Fluorophenyl)-4-(6-phenylfuro[2,3-d]pyrimidin-4-yl)-1H-pyrazol-1-yl]-2-methylpropan-2-ol], the IC50 is 0.18 nM in test [1]; 23.6 nM with BaF3_EGFR d19/CS cells (setting [3]); 667 nM with Ba/F3_EGFR WT cells (setting [4]); 15.7 nM in the test on BaF3_EGFR LR/CS cells (setting [5]); 0.4 nM in test [2].
For `CC(C)(O)Cn1cc(-c2ncnc3oc(-c4ccccc4)cc23)c(-c2ccccc2)n1` [Example 110, 2-Methyl-1-[3-phenyl-4-(6-phenylfuro[2,3-d]pyrimidin-4-yl)-1H-pyrazol-1-yl]propan-2-ol] the same measures were 0.33 nM, 83.1 nM, 1380 nM, 68.7 nM and 0.69 nM.
Regarding `NS(=O)(=O)CCn1cc(-c2ncnc3oc(-c4ccccc4)cc23)c(-c2ccc(F)cc2)n1` [Example 111, 2-[3-(4-Fluorophenyl)-4-(6-phenylfuro[2,3-d]pyrimidin-4-yl)-1H-pyrazol-1-yl]ethane-1-sulfonamide], the IC50 came to 0.41 nM in test [1]; 114 nM with BaF3_EGFR d19/CS cells (setting [3]); 1140 nM in the test with Ba/F3_EGFR WT cells (setting [4]); 53.7 nM in the test on BaF3_EGFR LR/CS cells (setting [5]); 0.45 nM in test [2].
Consider `O=S1(=O)CC(Cn2ncc(-c3ncnc4oc(-c5ccccc5)cc34)c2-c2ccc(F)cc2)C1` [Example 112, 3-((5-(4-fluorophenyl)-4-(6-phenylfuro[2,3-d]pyrimidin-4-yl)-1H-pyrazol-1-yl)methyl)thietane 1,1-dioxide], for which the IC50 in test [1] was found to be 12.5 nM; with BaF3_EGFR d19/CS cells (setting [3]) it was 1150 nM; in the test with Ba/F3_EGFR WT cells (setting [4]) it was 7150 nM; in the test on BaF3_EGFR LR/CS cells (setting [5]) it was 741 nM; in test [2], 12.9 nM.
With `COC1(CCn2cc(-c3ncnc4oc(-c5ccccc5)cc34)c(-c3ccc(F)cc3)n2)COC1` [Example 113, 4-{3-(4-fluorophenyl)-1-[2-(3-methoxyoxetan-3-yl)ethyl]-1H-pyrazol-4-yl}-6-phenylfuro[2,3-d]pyrimidine], the IC50 in test [1] was found to be 1.49 nM; with BaF3_EGFR d19/CS cells (setting [3]), 315 nM; in the test on Ba/F3_EGFR WT cells (setting [4]) it was 2190 nM; in the test with BaF3_EGFR LR/CS cells (setting [5]) it was 256 nM; in test [2], 1.27 nM.
Take `CS(=O)(=O)N1CC(n2cc(-c3ncnc4oc(-c5ccccc5)cc34)c(-c3ccc(F)cc3)n2)C1` [Example 114, 4-{3-(4-fluorophenyl)-1-[1-(methanesulfonyl)azetidin-3-yl]-1H-pyrazol-4-yl}-6-phenylfuro[2,3-d]pyrimidine]: the IC50 was 0.55 nM in test [1]; 137 nM with BaF3_EGFR d19/CS cells (setting [3]); 3320 nM in the test with Ba/F3_EGFR WT cells (setting [4]); 132 nM in the test with BaF3_EGFR LR/CS cells (setting [5]); 1.62 nM in test [2].
As for `N#CCCCn1cc(-c2ncnc3oc(-c4ccccc4)cc23)c(-c2ccc(F)cc2)n1` [Example 116, 4-[3-(4-Fluorophenyl)-4-(6-phenylfuro[2,3-d]pyrimidin-4-yl)-1H-pyrazol-1-yl]butanenitrile], the IC50 in test [1] is 0.23 nM; in the test on BaF3_EGFR d19/CS cells (72 h), 47.6 nM; in the test with Ba/F3_EGFR WT cells (72 h), 1510 nM; with BaF3_EGFR LR/CS cells (72 h), 22.9 nM; in test [2], 0.37 nM.
For the compound `CNC(=O)CCn1cc(-c2ncnc3oc(-c4ccccc4)cc23)c(-c2ccc(F)cc2)n1` [Example 117, 3-[3-(4-fluorophenyl)-4-(6-phenylfuro[2,3-d]pyrimidin-4-yl)-1H-pyrazol-1-yl]-N-methylpropanamide], the IC50 turned out to be 0.27 nM in test [1]; 93.7 nM in the test on BaF3_EGFR d19/CS cells (setting [3]); 1270 nM with Ba/F3_EGFR WT cells (setting [4]); 103 nM in the test with BaF3_EGFR LR/CS cells (setting [5]); 0.47 nM in test [2].
Take `NC(=O)CCn1cc(-c2ncnc3oc(-c4ccccc4)cc23)c(-c2ccc(F)cc2)n1` [Example 118, 3-[3-(4-Fluorophenyl)-4-(6-phenylfuro[2,3-d]pyrimidin-4-yl)-1H-pyrazol-1-yl]propanamide]: the IC50 stood at 0.25 nM in test [1]; 50.5 nM in the test with BaF3_EGFR d19/CS cells (setting [3]); 1020 nM in the test on Ba/F3_EGFR WT cells (setting [4]); 38.3 nM in the test with BaF3_EGFR LR/CS cells (setting [5]); 0.56 nM in test [2].
In the same order, the values of `Fc1ccc(-c2nn(CC(F)F)cc2-c2ncnc3oc(-c4ccccc4)cc23)cc1` [Example 119, 4-[1-(2,2-Difluoroethyl)-3-(4-fluorophenyl)-1H-pyrazol-4-yl]-6-phenylfuro[2,3-d]pyrimidine] are 0.34 nM, 50.9 nM, 1340 nM, 35.5 nM and 0.7 nM.

The values above are taken from US20250034159A1, “INHIBITORS OF EPIDERMAL GROWTH FACTOR RECEPTOR” (ORIC Pharmaceuticals, Inc., priority 2021, published 2025).
